Test results from US20250084074A1, “SUBSTITUTED HETEROCYCLES AS HSET INHIBITORS” (MERCK PATENT GMBH, priority 2022, published 2025).
Counter-ions that a name gives are not always drawn.

The compounds below were run against HSET full length protein (Homo sapiens (Human), UniProt Q9BW19) (assay: HSET ADP-Glo Assay S - 3 μM ATP). Conditions: 5 nM HSET, 70 μg/mL microtubule, 80 min at rt, read-out: COMBINED HSET ADP GLO IC50.
Assay type: biochemical
How it was run: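 ADP-Glo luminescence read-out: ATPase reaction at 3 μM ATP, 80 min at room temperature, after a 10 min compound preincubation. Enzyme was full-length human HSET at 5 nM, stimulated by 70 μg/mL paclitaxel-stabilised bovine microtubules in HEPES pH 6.8 buffer with MgCl2, EGTA, Triton X-100 and DTT.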

Sequence of HSET full length protein (Q9BW19 whole entry): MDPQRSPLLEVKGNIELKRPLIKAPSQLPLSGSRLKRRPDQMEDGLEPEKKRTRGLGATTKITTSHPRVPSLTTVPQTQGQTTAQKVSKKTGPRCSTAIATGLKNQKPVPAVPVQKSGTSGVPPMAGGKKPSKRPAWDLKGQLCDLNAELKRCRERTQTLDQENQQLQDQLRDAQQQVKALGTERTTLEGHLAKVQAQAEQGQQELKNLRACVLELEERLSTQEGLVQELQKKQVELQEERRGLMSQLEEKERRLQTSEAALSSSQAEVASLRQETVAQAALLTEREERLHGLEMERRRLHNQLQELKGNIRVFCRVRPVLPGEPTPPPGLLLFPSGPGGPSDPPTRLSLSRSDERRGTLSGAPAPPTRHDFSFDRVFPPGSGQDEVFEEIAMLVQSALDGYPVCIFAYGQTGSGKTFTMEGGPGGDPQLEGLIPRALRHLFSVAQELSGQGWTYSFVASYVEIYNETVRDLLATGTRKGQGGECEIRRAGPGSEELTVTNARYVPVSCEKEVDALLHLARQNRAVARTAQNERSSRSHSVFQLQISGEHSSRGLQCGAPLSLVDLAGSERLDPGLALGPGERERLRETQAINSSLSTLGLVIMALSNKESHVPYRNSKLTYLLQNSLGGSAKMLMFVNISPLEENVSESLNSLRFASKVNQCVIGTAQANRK

IC50 [nM]	SMILES
265	CNCCC[C@@H](CC(=O)Nc1nc(C)c(C(=O)O)s1)Nc1nccc2ccc(-c3noc(C)n3)cc12 [Example 169, (S)-4-methyl-2-(3-((7-(5-methyl-1,2,4-oxadiazol-3-yl)isoquinolin-1-yl)amino)-6-(methylamino)hexanamido)thiazole-5-carboxylic acid]
4	CNCCC[C@@H](CC(=O)Nc1nc(C)c(C(=O)OC2CCC(F)(F)C2)s1)Nc1nccc2ccc(-c3noc(C)n3)cc12 (stereo partly drawn) [Example 170, 3,3-Difluorocyclopentyl 4-methyl-2-((S)-3-((7-(5-methyl-1,2,4-oxadiazol-3-yl)isoquinolin-1-yl)amino)-6-(methylamino)hexanamido)thiazole-5-carboxylate]
149	CNCCC[C@@H](CC(=O)Nc1nc(C)c(C(C)(C)C)s1)Nc1nccc2ccc(-c3noc(C)n3)cc12 [Example 171, (S)-N-(5-(tert-butyl)-4-methylthiazol-2-yl)-3-((7-(5-methyl-1,2,4-oxadiazol-3-yl)isoquinolin-1-yl)amino)-6-(methylamino)hexanamide]
6	CCCOC(=O)c1sc(NC(=O)C[C@H](CCCNC)Nc2nccc3ccc(-c4noc(C)n4)cc23)nc1C [Example 172, Propyl (S)-4-methyl-2-(3-((7-(5-methyl-1,2,4-oxadiazol-3-yl)isoquinolin-1-yl)amino)-6-(methylamino)hexanamido)thiazole-5-carboxylate]
63	CCCOC(=O)c1sc(NC(=O)[C@H](N)CNC(=O)c2cccc(-c3noc(C)n3)c2)nc1C [Example 173, Propyl (R)-2-(2-amino-3-(3-(5-methyl-1,2,4-oxadiazol-3-yl)benzamido)propanamido)-4-methylthiazole-5-carboxylate formate]
8	CCCOC(=O)c1sc(NC(=O)[C@@H](N)CNc2nccc3ccc(-c4noc(C)n4)cc23)nc1C [Example 174, Propyl (S)-2-(2-amino-3-((7-(5-methyl-1,2,4-oxadiazol-3-yl)isoquinolin-1-yl)amino)propanamido)-4-methylthiazole-5-carboxylate]
335	CCCOC(=O)c1sc(NC(=O)[C@H](CNC(=O)c2cccc(-c3noc(C)n3)c2)N(C)C)nc1C [Example 175, Propyl (S)-2-(2-(dimethylamino)-3-(3-(5-methyl-1,2,4-oxadiazol-3-yl)benzamido)propanamido)-4-methylthiazole-5-carboxylate formate]
1	CCCOC(=O)c1sc(NC(=O)[C@H](O)CNc2nccc3ccc(-c4noc(C)n4)cc23)nc1C [Example 176, Propyl (R)-2-(2-hydroxy-3-((7-(5-methyl-1,2,4-oxadiazol-3-yl)isoquinolin-1-yl)amino)propanamido)-4-methylthiazole-5-carboxylate]
2	Cc1nc(-c2ccc3ccnc(NC[C@@H](O)C(=O)Nc4nc(C)c(C(=O)OC(C)(C)C)s4)c3c2)no1 [Example 177, tert-Butyl (R)-2-(2-hydroxy-3-((7-(5-methyl-1,2,4-oxadiazol-3-yl)isoquinolin-1-yl)amino)propanamido)-4-methylthiazole-5-carboxylate]
2	CCCOC(=O)c1sc(NC(=O)[C@@H](O)CNc2nccc3ccc(-c4noc(C)n4)cc23)nc1C [Example 178, Propyl (S)-2-(2-hydroxy-3-((7-(5-methyl-1,2,4-oxadiazol-3-yl)isoquinolin-1-yl)amino)propanamido)-4-methylthiazole-5-carboxylate]
43	Cc1nc(-c2ccc3ccnc(NC[C@H](O)C(=O)Nc4nc(C)c(CC(C)C)s4)c3c2)no1 [Example 179, (S)-2-hydroxy-N-(5-isobutyl-4-methylthiazol-2-yl)-3-((7-(5-methyl-1,2,4-oxadiazol-3-yl)isoquinolin-1-yl)amino)propenamide]
2	Cc1nc(-c2ccc3ccnc(NC[C@H](O)C(=O)Nc4nc(C)c(C(=O)OC(C)(C)C)s4)c3c2)no1 [Example 180, tert-Butyl (S)-2-(2-hydroxy-3-((7-(5-methyl-1,2,4-oxadiazol-3-yl)isoquinolin-1-yl)amino)propanamido)-4-methylthiazole-5-carboxylate]
14	Cc1nc(NC(=O)[C@@H](O)CNc2nccc3ccc(-c4cnn(C)c4)cc23)sc1C(=O)OC(C)(C)C [Example 181, tert-Butyl (S)-2-(2-hydroxy-3-((7-(1-methyl-1 H-pyrazol-4-yl)isoquinolin-1-yl)amino)propanamido)-4-methylthiazole-5-carboxylate]
57	CCCc1nc(-c2cc(NC(=O)[C@@H](O)CNc3nccc4ccc(-c5noc(C)n5)cc34)nn2C)no1 [Example 182, (S)-2-hydroxy-3-((7-(5-methyl-1,2,4-oxadiazol-3-yl)isoquinolin-1-yl)amino)-N-(1-methyl-5-(5-propyl-1,2,4-oxadiazol-3-yl)-1 H-pyrazol-3-yl)propenamide]
17300	CCCc1nc(-c2cc(NC(=O)[C@@H](O)CNc3nccc4ccc(C)cc34)nn2C)no1 [Example 183, (S)-2-hydroxy-N-(1-methyl-5-(5-propyl-1,2,4-oxadiazol-3-yl)-1 H-pyrazol-3-yl)-3-((7-methylisoquinolin-1-yl)amino)propanamide]
34	Cc1ccc2ccnc(NC[C@@H](O)C(=O)Nc3nc(C)c(C(=O)OC(C)(C)C)s3)c2c1 [Example 184, tert-Butyl (R)-2-(2-hydroxy-3-((7-methylisoquinolin-1-yl)amino)propanamido)-4-methylthiazole-5-carboxylate]
20	Cc1ccc2ccnc(NC[C@H](O)C(=O)Nc3nc(C)c(C(=O)OC(C)(C)C)s3)c2c1 [Example 185, tert-Butyl (S)-2-(2-hydroxy-3-((7-methylisoquinolin-1-yl)amino)propanamido)-4-methylthiazole-5-carboxylate]
30	CCCOC(=O)c1sc(NC(=O)[C@H](CNc2nccc3ccc(-c4noc(C)n4)cc23)OC)nc1C [Example 186, Propyl (S)-2-(2-methoxy-3-((7-(5-methyl-1,2,4-oxadiazol-3-yl)isoquinolin-1-yl)amino)propanamido)-4-methylthiazole-5-carboxylate]
52	Cc1nc(-c2ccc3ccnc(NC[C@H](O)C(=O)Nc4nc(C)c(C(C)(C)C)s4)c3c2)no1 [Example 187, (S)-N-(5-(tert-butyl)-4-methylthiazol-2-yl)-2-hydroxy-3-((7-(5-methyl-1,2,4-oxadiazol-3-yl)isoquinolin-1-yl)amino)propenamide]
270	CCCCCc1cc(NC(=O)[C@@H](O)CNc2nccc3ccc(-c4noc(C)n4)cc23)nn1C [Example 188, (S)-2-hydroxy-3-((7-(5-methyl-1,2,4-oxadiazol-3-yl)isoquinolin-1-yl)amino)-N-(1-methyl-5-pentyl-1 H-pyrazol-3-yl)propenamide]
616	CCCCCc1cc(NC(=O)[C@H](O)CNc2nccc3ccc(-c4noc(C)n4)cc23)nn1C [Example 189, (R)-2-hydroxy-3-((7-(5-methyl-1,2,4-oxadiazol-3-yl)isoquinolin-1-yl)amino)-N-(1-methyl-5-pentyl-1 H-pyrazol-3-yl)propenamide]
726	Cc1nc(-c2ccc3ccnc(NC[C@@H](O)C(=O)Nc4nc(C)c(C(C)(C)C)s4)c3c2)no1 [Example 190, (R)-N-(5-(tert-butyl)-4-methylthiazol-2-yl)-2-hydroxy-3-((7-(5-methyl-1,2,4-oxadiazol-3-yl)isoquinolin-1-yl)amino)propanamide]
284	Cc1nc(-c2ccc3ccnc(NC[C@@H](O)C(=O)Nc4nc(C)c(CC(C)C)s4)c3c2)no1 [Example 191, (R)-2-hydroxy-N-(5-isobutyl-4-methylthiazol-2-yl)-3-((7-(5-methyl-1,2,4-oxadiazol-3-yl)isoquinolin-1-yl)amino)propenamide]
461	Cc1nc(-c2ccc3ccnc(NC[C@@H](O)C(=O)Nc4nc(C)c(C5(C(F)(F)F)CC5)s4)c3c2)no1 [Example 192, (R)-2-hydroxy-3-((7-(5-methyl-1,2,4-oxadiazol-3-yl)isoquinolin-1-yl)amino)-N-(4-methyl-5-(1-(trifluoromethyl)cyclopropyl)thiazol-2-yl)propanamide]
5	Cc1nc(-c2cccc(C(=O)N[C@@H](CC#N)CC(=O)Nc3nc(C)c(C(=O)OC(C)(C)C)s3)c2)no1 [Example 193, tert-Butyl 2-[(3S)-4-cyano-3-{[3-(5-methyl-1,2,4-oxadiazol-3-yl)phenyl]form, amido}-butanamido]-4-methyl-1,3-thiazole-5-carboxylate]
96	Cc1nc(-c2cccc(C(=O)N[C@H](CC#N)CC(=O)Nc3nc(C)c(C(=O)OC(C)(C)C)s3)c2)no1 [Example 194, tert-Butyl 2-[(3R)-4-cyano-3-{[3-(5-methyl-1,2,4-oxadiazol-3-yl)phenyl]form-amido}butanamido]-4-methyl-1,3-thiazole-5-carboxylate]
12	Cc1nc(-c2cccc(C(=O)N[C@@H](CC#N)CC(=O)Nc3nc(C)c(C(=O)OC(C)C)s3)c2)no1 [Example 195, Propan-2-yl 2-[(3S)-4-cyano-3-{[3-(5-methyl-1,2,4-oxadiazol-3-yl)phenyl]form-amido}butanamido]-4-methyl-1,3-thiazole-5-carboxylate]
167	Cc1nc(-c2cccc(C(=O)N[C@H](CC#N)CC(=O)Nc3nc(C)c(C(=O)OC(C)C)s3)c2)no1 [Example 196, Propan-2-yl 2-[(3R)-4-cyano-3-{[3-(5-methyl-1,2,4-oxadiazol-3-yl)phenyl]form-amido}butanamido]-4-methyl-1,3-thiazole-5-carboxylate]
135	COC(=O)c1sc(NC(=O)C[C@H](CC#N)NC(=O)c2cccc(-c3noc(C)n3)c2)nc1C [Example 197, Methyl 2-[(3S)-4-cyano-3-{[3-(5-methyl-1,2,4-oxadiazol-3-yl)phenyl]formamido}, butanamido]-4-methyl-1,3-thiazole-5-carboxylate]
181	COC(=O)c1sc(NC(=O)C[C@@H](CC#N)NC(=O)c2cccc(-c3noc(C)n3)c2)nc1C [Example 198]
